56 substances from ChEMBL document CHEMBL4665541, “Search for new therapeutic options for the uncommon pathogen Mycobacterium chimaera: an open drug discovery approach” (Lancet Microbe, 2021) can be followed below.

What all share (assay type): functional, organism-based
What all share (design): conc 20 uM

The subject of experiment [1] is Mycobacterium intracellulare subsp. chimaera. Put plainly: (§1) Inhibition of mycobacterial growth using the resazurin microtitre cell viability assay (REMA), compounds at final concentration of 20 µM (2% v/v DMSO). Hits were classed as compounds that inhibited bacterial growth by 70% or more compared to drug-free controls. The settings on record: NCTC13781. (In general: Resazurin is reduced to fluorescent resorufin, in cell work by metabolically active cells.)

The test system of experiment [2] is Mycobacterium tuberculosis. The description is as §1. Conditions: H37Rv.
The test system of experiment [3] is Mycobacteroides abscessus. The description is as §1. Conditions: ATCC19977.

On to MMV026020, for which the Survival in experiment [1] was 105%; in experiment [2], 102%; in experiment [3] it was 113%.
As to MMV688552, the Survival in experiment [1] was 103%; in experiment [2] it was 81%; in experiment [3], 107%.
The corresponding values for MMV688797 are 96.5%, 80.5% and 113%.
For the substance MMV688936, the Survival was 98.9% in experiment [1], 82.6% in experiment [2] and 106% in experiment [3].
The corresponding values for MMV659010 are 91.7%, 85.6% and 112%.
The corresponding values for MMV689028 are 127%, 121% and 121%.
The corresponding values for MMV053220 are 97.9%, 90.6% and 115%.
Turning to MMV687807, the Survival in experiment [1] was 82.9%; in experiment [2], 4.61%; in experiment [3] it was 103%.
The corresponding values for MMV676380 are 86.9%, 97% and 102%.
For the substance MMV688939, the Survival was 95.4% in experiment [1], 48.9% in experiment [2] and 97.6% in experiment [3].
As to MMV085210, the Survival in experiment [1] was 88.2%; in experiment [2], 82.8%; in experiment [3] it was 115%.
In the same order, the values of MMV688754 are 103%, 92.9% and 109%.
In the same order, the values of MMV687812 are 41%, 26% and 26.9%.
For MMV1030799, the Survival in experiment [1] is 99.7%; in experiment [2], 18.8%; in experiment [3], 121%.
In the same order, the values of MMV021375 are 93.8%, 89.6% and 111%.
The corresponding values for MMV676477 are 73.1%, 4.54% and 111%.
The corresponding values for MMV688361 are 88.9%, 92.9% and 116%.
As for MMV688471, the values for the Survival in experiment [1], in experiment [2] and in experiment [3] were 98.6%, 87.8% and 109%, respectively.
In the same order, the values of MMV011903 are 108%, 108% and 114%.
The corresponding values for MMV676524 are 97%, 23.4% and 114%.
Regarding MMV690027, the Survival in experiment [1] was 104%; in experiment [2], 101%; in experiment [3], 111%.
In the same order, the values of MMV019189 are 97.4%, 77% and 97.2%.
As for MMV019721, the values for the Survival in experiment [1], in experiment [2] and in experiment [3] were 114%, 104% and 121%, respectively.
The corresponding values for MMV676383 are 79.3%, 1.2% and 110%.
The corresponding values for MMV1029203 are 125%, 128% and 116%.
In the case of MMV688371, the Survival in experiment [1] is 107%; in experiment [2], 111%; in experiment [3], 119%.
MMV687246: the Survival in experiment [1] was 110%; in experiment [2], 90.9%; in experiment [3], 119%.
The corresponding values for MMV000063 are 99.8%, 90.6% and 120%.
The corresponding values for MMV688795 are 105%, 77.7% and 105%.
On to MMV024114, for which the Survival in experiment [1] was 106%; in experiment [2], 126%; in experiment [3], 121%.
On to MMV676401, for which the Survival was 88% in experiment [1], 95.8% in experiment [2] and 113% in experiment [3].
In the same order, the values of MMV676558 are 100%, 90.9% and 110%.
The corresponding values for MMV023985 are 109%, 85.1% and 101%.
Regarding MMV688763, the Survival in experiment [1] was 99.1%; in experiment [2], 21.8%; in experiment [3], 122%.
For MMV020512, the results for the Survival in experiment [1], in experiment [2] and in experiment [3] were 109%, 104% and 116%, respectively.
On to MMV393995, for which the figures for the Survival in experiment [1], in experiment [2] and in experiment [3] were 95.8%, 46.2% and 93.9%, respectively.
The corresponding values for MMV688283 are 112%, 89.4% and 116%.
In the same order, the values of MMV023227 are 87.2%, 85.3% and 106%.
In the same order, the values of MMV688416 are 94.7%, 99.5% and 103%.
Regarding MMV009135, the Survival was 104% in experiment [1], 93.6% in experiment [2] and 101% in experiment [3].
In the same order, the values of MMV020710 are 95.7%, 86.9% and 123%.
The corresponding values for MMV688372 are 112%, 88.8% and 104%.
The corresponding values for MMV676480 are 104%, 106% and 104%.
As for MMV146306, the Survival in experiment [1] was 96.2%; in experiment [2], 96.1%; in experiment [3], 107%.
Consider MMV689255, for which the figures for the Survival in experiment [1], in experiment [2] and in experiment [3] were 109%, 89.2% and 124%, respectively.
The corresponding values for MMV676476 are 100%, 72.8% and 108%.
The corresponding values for MMV560185 are 89.9%, 80.8% and 116%.
For MMV687801, the Survival in experiment [1] is 31.5%; in experiment [2], 58.9%; in experiment [3], 114%.
In the same order, the values of MMV202458 are 98.1%, 132% and 99.9%.
The corresponding values for MMV687776 are 99.3%, 90.5% and 124%.
MMV688352: the Survival in experiment [1] was 103%; in experiment [2], 89.6%; in experiment [3], 107%.
The corresponding values for MMV019087 are 92.7%, 74.9% and 111%.
In the same order, the values of MMV047015 are 85.3%, 52.2% and 111%.
In the same order, the values of MMV687146 are 4.5%, 77.5% and 17.2%.
Take MMV023388: the Survival was 98% in experiment [1], 99.3% in experiment [2] and 90.4% in experiment [3].
The corresponding values for MMV020321 are 91.7%, 90.7% and 115%.
